{"source": "patent US8399383B2", "about": "“Protein chips for high throughput screening of protein activity” (Yale University, priority 2000, dated 2013)", "molecular_target": "human protein kinase A (PKA) (Homo sapiens, UniProt P17612)", "experiment": "Kinase/inhibitor assay on protein chip (33P-γ-ATP phosphorylation)", "assay_type": "biochemical", "details": "peptide and MBP substrates; different concentrations of inhibitor; FIG. 7", "method": "Substrates were bound to the surface of the GPTS-treated microwells on the protein chip at room temperature for one hour, then blocked with 1% BSA and 100 mM Tris pH 7.5, and washed three times with TBS buffer. Kinases and different concentrations of kinase inhibitors were added to the microwells in the presence of ^33P-γ-ATP. The phosphorylation reaction was carried out at 30° C. for thirty minutes. After completion of the reaction, the protein chip was washed extensively with TBS buffer at room temperature, and then allowed to dry. Phosphorylation signals were obtained by exposing the protein chip to either X-ray film or a phosphoimager.\nA human protein kinase A (PKA), a human map kinase (MAPK), three yeast PKA homologs (TPK1, TPK2 and TPK3), and two other yeast protein kinases (HSL1 and RCK1) were tested against two substrates (i.e., a protein substrate for PKA and a commonly used kinase substrate, MBP) using different concentrations of PKIA (a specific human PKA inhibitor) or SB202190 (a MAPK inhibitor).", "note": "“Also recorded” adds a separate entry of the source."}
{"smiles": "Oc1ccc(-c2nc(-c3ccncc3)c(-c3ccc(F)cc3)[nH]2)cc1", "note": "[SB202190]", "values": [{"measurement": "inhibition of PKA activity", "value": "did not inhibit; also recorded: did not show any inhibitory effect"}]}
